Results on one compound are retold here after EP4583874B1, “MULTITARGET NUCLEAR RECEPTOR LIGANDS BASED ON 2-(4-(QUINOLIN-2-YLOXY)PHENOXY)PROPANOIC ACID AND 2-(4-(QUINOXALIN-2-YLOXY)PHENOXY)PROPANOIC ACID FOR THE TREATMENT OF METABOLIC AND LIVER DISEASES” (CHARLES UNIVERSITY, FACULTY OF PHARMACY IN HRADEC KRALOVE, priority 2022, dated 2024).

The term Emax denotes the size of the effect at its maximum, as opposed to the concentration needed.

One data set deals with T1, human FXR (Homo sapiens, UniProt Q96RI1).
T1 construct: expressed in transfected cells; host or cells: HepG2
T1 sequence (Q96RI1 1-486): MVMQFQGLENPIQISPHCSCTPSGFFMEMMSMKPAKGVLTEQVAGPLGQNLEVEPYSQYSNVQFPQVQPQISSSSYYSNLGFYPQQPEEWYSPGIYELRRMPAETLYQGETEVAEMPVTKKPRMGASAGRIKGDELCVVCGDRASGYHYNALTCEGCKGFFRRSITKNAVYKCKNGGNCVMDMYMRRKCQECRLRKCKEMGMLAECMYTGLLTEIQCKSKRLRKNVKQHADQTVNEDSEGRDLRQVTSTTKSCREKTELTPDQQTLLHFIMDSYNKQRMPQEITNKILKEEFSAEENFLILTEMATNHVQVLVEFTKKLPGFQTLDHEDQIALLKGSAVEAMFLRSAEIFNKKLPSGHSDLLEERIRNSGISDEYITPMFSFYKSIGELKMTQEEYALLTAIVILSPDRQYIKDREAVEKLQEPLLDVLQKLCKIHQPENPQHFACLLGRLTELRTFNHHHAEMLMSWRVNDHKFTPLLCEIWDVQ
As to the kind of experiment: FXR responsive luciferase reporter gene assay (FXRE-luc + human FXR expression construct) in HepG2 cells. The class given is cell-based. The note with it: HepG2, 24 h. An excerpt: (§1) In HepG2 cells, luciferase gene reporter assays have been performed with the transiently transfected reporter gene luciferase construct with the UAS yeast binding site interacting with GAL4 protein (pGL5-UAS 9x, Promega). DNA constructs encoding human LBD domains of human PPARα, PPARγ, of LXRα (pGAL4-PPARα, pGAL4-PPARγ, pGAL4-LXRα) have been cotransfected with the reporter construct. For FXR, FXRE-luc construct with FXR response elements upstream of Firefly luciferase has been used together with an expression construct for human FXR for HepG2 cells transfection. HepG2 cells were then treated with compounds of the invention for 24 h.
For orientation: In a reporter assay the amount or activity of a reporter protein is the signal.

The target in another data set is T2, TGR5 (Homo sapiens, UniProt Q8TDU6).
T2 sequence (Q8TDU6 1-330): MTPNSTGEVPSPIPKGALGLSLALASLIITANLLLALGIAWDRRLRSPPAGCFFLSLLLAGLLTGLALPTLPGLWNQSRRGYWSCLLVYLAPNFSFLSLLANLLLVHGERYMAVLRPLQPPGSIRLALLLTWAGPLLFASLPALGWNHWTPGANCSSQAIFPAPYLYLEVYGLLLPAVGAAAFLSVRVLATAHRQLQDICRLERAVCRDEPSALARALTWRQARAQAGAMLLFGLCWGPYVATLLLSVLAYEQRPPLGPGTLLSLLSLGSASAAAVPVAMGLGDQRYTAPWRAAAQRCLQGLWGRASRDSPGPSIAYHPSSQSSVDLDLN
Briefly: TGR5 luciferase reporter assay. The note with it: relative activation to LCA 10 µM (100%), negative value indicates inverse agonism. Type of data set: cell-based.

Another data set concerns the target T3, human LXRα (Homo sapiens, UniProt Q13133).
T3 construct: DNA constructs encoding human LBD domains of human PPARα, PPARγ, of LXRα (pGAL4-PPARα, pGAL4-PPARγ, pGAL4-LXRα); expressed in transfected cells; host or cells: HepG2
T3 sequence (Q13133 209-447 limits assumed): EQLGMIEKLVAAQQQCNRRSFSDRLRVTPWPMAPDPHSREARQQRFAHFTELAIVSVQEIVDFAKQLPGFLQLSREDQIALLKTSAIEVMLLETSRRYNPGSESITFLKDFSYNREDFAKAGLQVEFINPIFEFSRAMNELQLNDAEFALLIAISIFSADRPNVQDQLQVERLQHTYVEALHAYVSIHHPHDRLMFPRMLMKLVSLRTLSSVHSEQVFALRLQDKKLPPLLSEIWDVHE
As to the kind of experiment: LXRα luciferase reporter gene assay, inhibition of activation by GW3965 (pGAL4-LXRα / pGL5-UAS 9x) in HepG2 cells. The class given is cell-based. The note with it: HepG2, 24 h; read-out: LXRα antagonism. As to the method: Bezafibrate, GW7647 and WY14643 are known PPARα ligands. […] GW3965 is known high-affinity LXRα ligand.
Inverse agonistic/antagonistic activities of tested compounds to LXRα receptor activated by the LXRα agonist GW3965(10 µM). […] Negative value indicates inverse agonism.
as §1

Data set [1] concerns C57BL/6J mice fed with high fat diet. As to the kind of experiment: Proof-of-concept study in mice fed with high fat diet: plasma biochemistry, weights, IPGTT. The class given is in vivo. The note with it: HFD mice; for glucose plasma levels in Intraperitoneal Glucose Tolerance Test (IPGTT): IPGTT 1.5 g/kg BW. An excerpt: Control group received a chow diet.
In the proof-of-concept study, after a 1-week of adaptation period, male C57BL/6J mice were randomly divided into three groups: (i) mice fed a chow diet (control; PicoLab RD 20, LabDiet) and tap water (n=4) or (ii) mice fed a high-fat diet (HFD) consisting of Western diet (AIN-76A WD, TestDiet, 20 % fat) and glucose (18.1 g/L) with fructose (24 g/L) provided in water. At week 21 on HFD diet, mice were randomly assigned into two experimental groups (10 and 11 mice per group): (ii) group on HFD, (iii) group on HFD administered with 10 mg/kg compound of EXAMPLE 37 as a salt (hydrochloride) (HFD +comp. 37). Compound of EXAMPLE 37or vehicle (1% methylcellulose) were administered once daily by oral gavage for another 3 weeks together with diets.
The i.p. Glucose tolerance test has been performed seven days before the termination of the study. For the purpose, […] of glucose dissolved in saline has been applied and blood was sampled in four intervals up to 120 minutes form tail vein. A standard glucometer was used to measure glycemia.
For biochemistry analyses, plasma liver enzyme activities were analyzed in plasma by a commercial Preventive Care Profile Plus test with Vetscan 2 device (Abaxis). Level of cholesterol and triglycerides in plasma and liver were measured by commercial kits (Erba Lachema s.r.o., Brno, Czech Republic).
Animals were sacrificed by anesthesia overdose. Plasma samples were obtained from the whole blood by centrifugation at 2,000 × g for 5 min at 4°C. The liver, gallbladder and abdominal fat were excised, weighted and immediately frozen in liquid nitrogen. All samples were stored at -80°C until analysis.

Setting [2] is: 10 mg/kg p.o. daily for 3 weeks (hydrochloride), vs HFD group.

With `C[C@@H](Oc1ccc(Oc2ccc3c(Cl)cccc3n2)cc1)C(=O)O` [compound 37, (R)-2-(4-((5-Chloroquinolin-2-yl)oxy)phenoxy)propanoic acid], the Emax at 10 µM at human FXR is 77%. This compound gave a maximal effect (Emax) at 10 µM on TGR5 of 10%. Moreover, at human LXRα, the inhibition at 10 µM is 39%. In data set [1] (setting [2]), the ALP plasma levels result is reported as “increases”, the ALT plasma levels result is on record as “improves”, the AST plasma levels result is reported as “improves” and the “plasma triglyceride (TG) levels” value is reported as “significantly decreases”. The “abdominal fat weight (AFW)” value in data set [1] (10 mg/kg p.o. daily for 3 weeks, effect not statistically significant) is on record as “decreased”. For the same compound, the “body weight (BW)” value in data set [1] (10 mg/kg p.o. daily, after three weeks of treatment) is on record as “significantly decreased”. The “glucose plasma levels in Intraperitoneal Glucose Tolerance Test (IPGTT)” value in data set [1] (after 15 minutes, 10 mg/kg p.o. daily) is on record as “significantly decreased”. The “glucose plasma levels in Intraperitoneal Glucose Tolerance Test (IPGTT)” value in data set [1] (other intervals, 10 mg/kg p.o. daily) is listed as “the decrease was not statistically significant”.
